Experimental data taken from US10906876B2, “Tetrahydroisoquinolines as selective NADPH oxidase 2 inhibitors” (University of Pittsburgh—Of the Commonwealth System of …, priority 2013, dated 2021).
Several values for one entry are separate records, joined by “and”; a condition that tells them apart may be missing. Equal values may be shown once.

Legend:
[1] = molecular target: T1, Nox2 (Homo sapiens, UniProt P04839); assay: ROS (superoxide) generation in whole COS-Nox2 cells, L-012 chemiluminescence; format: cell-based; conditions: for Activity in primary library screen: screened at 100, 50, 25, and 12.5 μM, COS-Nox2 cells; for IC50: whole COS-Nox2 cells stimulated with 5 μM PMA
T1 construct: expressed in transfected cells
T1 sequence (P04839 2-570 limits assumed): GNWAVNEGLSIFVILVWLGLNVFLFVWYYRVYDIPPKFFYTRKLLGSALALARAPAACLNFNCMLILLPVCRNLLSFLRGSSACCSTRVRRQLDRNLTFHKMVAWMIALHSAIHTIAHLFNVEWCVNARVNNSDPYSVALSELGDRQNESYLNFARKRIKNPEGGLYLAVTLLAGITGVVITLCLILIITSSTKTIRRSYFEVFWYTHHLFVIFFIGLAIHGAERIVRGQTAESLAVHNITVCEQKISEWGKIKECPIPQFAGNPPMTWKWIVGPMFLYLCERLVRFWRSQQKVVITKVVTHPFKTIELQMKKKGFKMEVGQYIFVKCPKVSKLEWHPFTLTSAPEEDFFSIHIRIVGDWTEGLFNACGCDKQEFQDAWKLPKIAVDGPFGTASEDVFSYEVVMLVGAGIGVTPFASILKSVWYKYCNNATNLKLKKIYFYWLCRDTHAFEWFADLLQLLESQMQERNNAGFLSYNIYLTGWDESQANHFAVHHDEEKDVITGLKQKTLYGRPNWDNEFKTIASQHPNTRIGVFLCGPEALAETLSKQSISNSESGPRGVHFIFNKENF
Text: (§1) All cell culture reagents were obtained from Invitrogen, unless indicated. COS-22 (COS-7 cells stably expressing human p22^phox) and COS-Nox2 (a.k.a. COS-phox) cells (COS-7 cells stably expressing human p22^phox, Nox2, p47^phox and p67^phox) were kindly provided by Dr. Mary C. Dinauer (Indiana University, School of Medicine) (Price et al., Blood, 2002, 99:2653-2661). COS-22 cells were maintained in Dulbecco's Modified Eagle Medium (DMEM) with 4.5 g/L glucose, L-glutamine and sodium pyruvate containing 10% heat-inactivated fetal bovine serum (FBS), 100 units/ml penicillin and 100 μg/ml streptomycin (complete media) supplemented with 1.8 mg/ml G418 (Calbiochem/EMB Bioscience, Gibbstown, N.J.). COS-Nox2 cells were maintained in complete media supplemented with 1.8 mg/mL G418, 1 μg/mL puromycin (Sigma, St Louis, Mo.) and 0.2 mg/mL hygromycin B (Invitrogen, Carlsbad, Calif.). HEK-Nox5 cells were kindly provided by Dr. David Fulton (Georgia Health Sciences University) and maintained in complete media.
COS-Nox2, COS-Nox1/NOXO1/NOXA1, HEK-Nox5 and COS-22 cells were re-plated in OPTIMEM into 384-well white micro-plates (Greiner-Bio One GmbH, Germany) at a density of 2.5×10^3 cells/well for COS-Nox2 and 5×10^4 cells/well for all others. The cells were incubated at 37° C. in PBS containing […] L-012 for 10 min. Reaction was initiated by addition of 5 μM PMA in the case of Nox2 or 1 μM PMA/0.1 μM Ionomycin in the case of Nox5. Since Nox1 was constitutively active, Nox1-derived O2^•− was assessed by comparison to non-transfected cells (Cos22). Luminescence was quantified over time using a Biotek Synergy 4 Hybrid Multi-Mode Microplate Reader. The specificity of L-012 for O2^•− was confirmed by the addition of SOD (150 U/mL).
(§2) All data are expressed as means±SEM. IC50 values were determined using the GraphPad Prism software (GraphPad Software, San Diego, Calif.) for non-linear regression three-parameters, with constrain values of 100 and 0 for top and bottom, respectively, and assumes a Hill slope of 1.
Heterologous Nox1, 2, 4, and 5 cell systems were used as a testing paradigm to identify a probe molecule that inhibits Nox2 selectively over Nox1, 4, and 5. An acceptable probe would also show a lack of activity against XO, which also produces ROS. The latter screen would serve two purposes: (1) to eliminate drugs that inhibit an oxidase of distinct composition; and (2) to preclude agents that directly scavenge ROS. A cell-based primary assay using stable Nox2-transfected COS cells (Price et al., Blood 2002, 99:2653-2661) with L-012 chemiluminescence (Daiber et al., Free Radic. Biol. Med. 2004, 36:101-111) was used as a detection system for O2^•−-generation.

[2] = molecular target: T1, Nox2; assay: ROS (H2O2) generation in whole COS-Nox2 cells, Amplex Red assay; format: cell-based; conditions: for IC50: whole COS-Nox2 cells stimulated with 5 μM PMA, Amplex Red; for Nox2 inhibitory activity: Table 2; for Selectivity for Nox2 over other Nox isoforms: cell-based assays for each Nox system
Text: as §1
H2O2 production was quantified in intact COS-Nox4 cells by Amplex® Red. Briefly, COS-Nox4 cells (5×10^4 cells/ml) were re-plated into 384-well plate in assay buffer (25 mM Hepes, pH 7.4, containing 0.12 M NaCl, 3 mM KCl, 1 mM MgCl2). The cells were incubated in the presence or absence of drugs at 37° C. in assay buffer supplemented with 0.1 mM Amplex® Red, and 0.32 U/ml of horse radish peroxidase (HRP) for 15 min. Fluorescence measurements were made using a Biotek Synergy 4 Hybrid Multi-Mode Microplate Reader with a 530/25-excitation and a 590/35-emission filter. The reaction was monitored at 37° C. for 1 h. A standard curve of known H2O2 concentrations was included on each plate. Nox4 activity was obtained by calculating the rate of H2O2 production as RFU/min and then subtracting the equivalent value given by non-transfected COS-22 cells. Similarly, H2O2 production by Nox2 cells was also measured by Amplex® Red as described above but in the presence of 150 U/mL of SOD and the reaction was initiated by addition of 5 μM PMA. The rate of H2O2 production in this case was calculated as RFU/min after the subtraction of the equivalent value given by non-stimulated cells. Data are expressed as % of vehicle control.
as §2

Structure (SMILES)	IC50 [1]	IC50 [2]	Nox2 inhibitory activity [2]	Selectivity for Nox2 over other Nox isoforms [2]	Activity in primary library screen [1]
C=C(C)CC1NC2CC(C)(C)C1c1c(Br)cccc12 (racemic) [Compound 7, (±)-(1S,4R,9S)-5-Bromo-3,3-dimethyl-9-(2-methylallyl)-1,2,3,4-tetrahydro-1,4-(epimino-methano)-naphthalene]	45 µM and 46 µM	40 µM and 25 to 40 µM			hit
C=C(C)CC1NC2CC(C)(C)C1c1ccccc12 (racemic) [Compound 8, (±)-(1S,4R,9S)-3,3-Dimethyl-9-(2-methylallyl)-1,2,3,4-tetrahydro-1,4-(epiminomethano)-naphthalene]	> 100 µM	> 100 µM	inactive		
C=C(C)CC1C2c3ccccc3C(CC2(C)C)N1Cc1cccc(F)c1 (racemic) [Compound 11a, (±)-(1S,4R,9S)-10-(3-Fluorobenzyl)-3,3-dimethyl-9-(2-methylallyl)-1,2,3,4-tetrahydro-1,4-(epiminomethano)naphthalene]	68 ± 33 µM	30 ± 7.5 µM			
C=C(C)CC1C2c3c(Br)cccc3C(CC2(C)C)N1Cc1ccnc2ccccc12 (racemic) [Compound 11b, (±)-(1S,4R,9S)-5-Bromo-3,3-dimethyl-9-(2-methylallyl)-10-(quinolin-4-ylmethyl)-1,2,3,4-tetra-hydro-1,4-(epiminomethano)naphthalene]	> 100 µM	> 100 µM	completely abolished		
C=C(C)CC1C2c3c(Br)cccc3C(CC2(C)C)N1Cc1c[nH]c2ccccc12 (racemic) [Compound 11c, (±)-(1S,4R,9S)-10-((1H-Indol-3-yl)methyl)-5-bromo-3,3-dimethyl-9-(2-methylallyl)-1,2,3,4-tetrahydro-1,4-(epiminomethano)naphthalene]	> 100 µM	> 100 µM	completely abolished		
C=C(C)CC1C2c3c(Br)cccc3C(CC2(C)C)N1Cc1ccc2c(c1)OCO2 (racemic) [Compound 11d, (±)-(1S,4R,9S)-10-(Benzo[d][1,3]dioxol-5-ylmethyl)-5-bromo-3,3-dimethyl-9-(2-methylallyl)-1,2,3,4-tetrahydro-1,4-(epiminomethano)naphthalene]	88 ± 22 µM	40 µM	decreased		
C=C(C)CC1C2c3c(Br)cccc3C(CC2(C)C)N1Cc1cc(C)on1 (racemic) [Compound 11e, (±)-3-(1S,4R,9S)-5-Bromo-3,3-dimethyl-9-(2-methylallyl)-1,2,3,4-tetrahydro-1,4-(epimino-methano) naphthalen-10-yl)methyl)-5-methylisoxazole]	48 ± 23 µM	12 ± 0.5 µM			
C=C(C)CC1C2c3c(Br)cccc3C(CC2(C)C)N1Cc1cccc(F)c1 (racemic) [Compound 11f, (±)-(1S,4R,9S)-5-Bromo-10-(3-fluorobenzyl)-3,3-dimethyl-9-(2-methylallyl)-1,2,3,4-tetrahydro-1,4-(epiminomethano)naphthalene]	68 ± 22 µM	51 µM			
C=C(C)CC1C2c3c(Br)cccc3C(CC2(C)C)N1CCCCC (racemic) [Compound 11g, (±)-(1S,4R,9S)-5-Bromo-3,3-dimethyl-9-(2-methylallyl-10-pentyl-1,2,3,4-tetrahydro-1,4-(epiminomethano)naphthalene]	20 ± 4.9 µM	20 ± 1.9 µM		specificity for Nox2 over Nox1, 4, and 5	
C=C(C)CC1C2c3c(Br)cccc3C(CC2(C)C)N1Cc1cccs1 (racemic) [Compound 11h, (±)-(1S,4R,9S)-5-Bromo-3,3-dimethyl-9-(2-methylallyl)-10-(thiophen-2-ylmethyl)-1,2,3,4-tetrahydro-1,4-(epiminomethano)naphthalene]	38 ± 11 µM	32 ± 1.9 µM		specificity for Nox2 over Nox1, 4, and 5	
CC(C)CC1NC2CC(C)(C)C1c1c(Br)cccc12 (racemic) [Compound 13]	31 ± 3.8 µM	78 ± 19 µM	retained inhibitory activity		
C=C(C)C[C@@H]1N[C@H]2CC(C)(C)[C@@H]1c1c(Br)ccc(Br)c12 [Compound 9]	40 ± 2.8 µM	25 ± 10 µM			active

Now from value to compound, other results behind:

IC50 [1]	IC50 [2]	Nox2 inhibitory activity [2]	Selectivity for Nox2 over other Nox isoforms [2]	Structure (SMILES)	Activity in primary library screen [1]
9 ± 0.9 µM	64 ± 35 µM	comparable	greater selectivity over Nox1	C=C(C)CC1NC2CC(C)(C)C1c1c(-c3ccc(Cl)c(Cl)c3)cccc12 (racemic) [Compound 12a, (±)-(1S,4R,9S)-5-(3,4-Dichlorophenyl)-3,3-dimethyl-9-(2-methylallyl)-1,2,3,4-tetrahydro-1,4-(epiminomethano)naphthalene]	
> 100 µM	> 100 µM	inactive		C=C(C)CC1C2c3c(-c4ccc(Cl)c(Cl)c4)cccc3C(CC2(C)C)N1Cc1ccc2c(c1)OCO2 (racemic) [Compound 12b, (±)-(1S,4R,9S)-10-(Benzo[d][1,3]dioxol-5-ylmethyl)-5-(3,4-dichlorophenyl)-3,3-dimethyl-9-(2-methylallyl)-1,2,3,4-tetrahydro-1,4-(epiminomethano)-naphthalene]	
> 100 µM	79 µM	inactive		C=C(C)CC1C2c3c(-c4ccc(Cl)c(Cl)c4)cccc3C(CC2(C)C)N1CCCCC (racemic) [Compound 12c]	
> 100 µM	27 ± 4.7 µM	completely abolished activity		C=C(C)CC1C2c3c(Br)cccc3C(CC2(C)C)N1S(C)(=O)=O (racemic) [Compound 14a, (±)-(1S,4R,9S)-5-Bromo-3,3-dimethyl-9-(2-methylallyl)-10-(methylsulfonyl)-1,2,3,4-tetrahydro-1,4-(epiminomethano)naphthalene]	
> 100 µM	> 100 µM	completely abolished activity		C=C(C)CC1C2c3c(Br)cccc3C(CC2(C)C)N1S(=O)(=O)c1ccc(F)cc1 (racemic) [Compound 14b, (±)-(1S,4R,9S)-5-Bromo-10-((4-fluorophenyl)sulfonyl)-3,3-dimethyl-9-(2-methylallyl)-1,2,3,4-tetrahydro-1,4-(epiminomethano)naphthalene]	
